43 compounds from patent publication US20210244721A1, “SMALL MOLECULE ENTEROVIRUS INHIBITORS AND USES THEREOF” (priority 2020, published 2021) can be followed below.

Data set [1] concerns EV-D68 US/KY/14-18953 virus. The experiment in a line: CPE assay, EV-D68 US/KY/14-18953 in RD cells. It counts as cell-based, Enterovirus D68 (EV-D68). Conditions: EV-D68 US/KY/14-18953, RD cells; for EC50: CPE assay.
Another data set concerns RD cells. The data set can be described thus: Cytotoxicity, neutral red method, RD cells. Conditions: RD cells.

Read-outs that look alike come from different tables or passages of the source.

With `NCCNC(=O)c1cc(-c2cccs2)nc2ccccc12` [Compound 6bl, N-(2-aminoethyl)-2-(thiophen-2-yl)quinoline-4-carboxamide], the EC50 in data set [1] (read-out: EC50) was determined as 400 nM.

In the case of `CCOc1cc(C(=O)NCCN(CC)CC)c2ccccc2n1` [Compound 5b, N-[2-(diethylamino)ethyl]-2-ethoxyquinoline-4-carboxamide], half-maximal cytotoxicity in the data set with RD cells (neutral red method) (CC50) was put at 165 ± 57.6 µM.

For the compound `CCN(CC)CCNC(=O)c1cc(OCc2ccccc2)nc2ccccc12` [Compound 5k, 2-(benzyloxy)-N-[2-(diethylamino)ethyl]quinoline-4-carboxamide], half-maximal cytotoxicity in the data set on RD cells (neutral red method) (CC50) was put at 13.5 ± 2.9 µM. Compared with the last compound, the CC50 is about 12-fold lower.

Consider `CNCCNC(=O)c1cc(-c2ccccc2)nc2ccccc12` [Compound 6af, N-[2-(methylamino)ethyl]-2-phenylquinoline-4-carboxamide], for which the EC50 in data set [1] (Enterovirus D, EVD68, RD, read-out: EC50) was found to be 900 nM.

With `CCN(CC)CCNC(=O)c1cc(OC2CCCC2)nc2ccccc12` [Compound 5i, 2-(cyclopentyloxy)-N-[2-(diethylamino)ethyl]quinoline-4-carboxamide], the CC50 in the data set with RD cells (neutral red method) was found to be 11.7 ± 1.2 µM.

As to `CCN(CC)CCNC(=O)c1cc(-c2cnc(N(C)C)nc2)nc2ccccc12` [Compound 6p, N-[2-(diethylamino)ethyl]-2-[2-(dimethylamino)pyrimidin-5-yl]quinoline-4-carboxamide], the 50% cytotoxic concentration (CC50) in the data set with RD cells (neutral red method) is 74.2 ± 7 µM.

In the case of `CN(C)CCNC(=O)c1cc(-c2ccco2)nc2ccccc12` [Compound 6bo, N-[2-(dimethylamino)ethyl]-2-(furan-2-yl)quinoline-4-carboxamide], the half-maximal effective concentration (EC50) in data set [1] (read-out: EC50) is 1100 nM; in data set [1] (Enterovirus D, EVD68, RD) it was < 1000 nM.

Take `CCN(CC)CCNC(=O)c1cc(-c2cnc(OC)nc2)nc2ccccc12` [Compound 6q, N-[2-(diethylamino)ethyl]-2-(2-methoxypyrimidin-5-yl)quinoline-4-carboxamide]: the midpoint of cytotoxicity with RD cells (neutral red method), the CC50, lay at 174 ± 20.3 µM.

`CCN(CC)CCNC(=O)c1cc(-c2c(C)noc2C)nc2ccccc12` [Compound 6h, N-[2-(diethylamino)ethyl]-2-(3,5-dimethyl-1,2-oxazol-4-yl)quinoline-4-carboxamide] came in with a half-maximal cytotoxic concentration (CC50) in the data set on RD cells (neutral red method) of 129 ± 67.2 µM.

Take `CN(C)CCCNC(=O)c1cc(-c2cccs2)nc2ccccc12` [Compound 12b, N-[3-(dimethylamino)propyl]-2-(thiophen-2-yl)quinoline-4-carboxamide]: the cytotoxic concentration (CC50) in the data set on RD cells (neutral red method) stood at 40.5 ± 14 µM.

Take `CCN(CC)CCNC(=O)c1cc(-c2ccnn2C)nc2ccccc12` [Compound 6c, N-[2-(diethylamino)ethyl]-2-(1-methyl-1H-pyrazol-5-yl)quinoline-4-carboxamide]: the CC50 with RD cells (neutral red method) worked out at 133 ± 28.7 µM.

For the compound `N=C(N)NC(=O)c1cc(-c2ccccc2)nc2ccccc12` [Compound 10e, N-carbamimidoyl-2-phenylquinoline-4-carboxamide], the “SI = selectivity index (CC50/EC50)” value in data set [1] is reported as >7.2. For the same compound, the CC50 with RD cells (neutral red method) was > 250 µM.

On to `CN(C)c1ccc(NC(=O)c2cc(-c3ccccc3)nc3ccccc23)cc1` [Compound 10f, N-[4-(dimethylamino)phenyl]-2-phenylquinoline-4-carboxamide], for which the “SI = selectivity index (CC50/EC50)” value in data set [1] was >3.5. Moreover, the half-maximal cytotoxic concentration (CC50) with RD cells (neutral red method) was > 350 µM.

In the data set on RD cells (neutral red method), `CCN(CC)CCNC(=O)c1cc(-c2ccccc2OC)nc2ccccc12` [Compound 6k, N-[2-(diethylamino)ethyl]-2-(2-methoxyphenyl)quinoline-4-carboxamide] displayed a CC50 of 75.9 ± 6.4 µM.

As for `CCOCCOc1cc(C(=O)NCCN(CC)CC)c2ccccc2n1` [Compound 5j, N-[2-(diethylamino)ethyl]-2-(2-ethoxyethoxy)quinoline-4-carboxamide], in the data set with RD cells (neutral red method), half-maximal cytotoxicity (CC50) was put at 144 ± 40.5 µM. This CC50 lies about 1.9-fold higher than the previous one.

`CCN(CC)CCNC(=O)c1cc(-c2ccncc2)nc2ccccc12` [Compound 6i, N-[2-(diethylamino)ethyl]-2-(pyridin-4-yl)quinoline-4-carboxamide] gave a CC50 in the data set on RD cells (neutral red method) of 174 ± 55.6 µM.

Take `CC(C)Oc1cc(C(=O)NCCN)c2ccccc2n1` [Compound 8b, N-(2-aminoethyl)-2-(propan-2-yloxy)quinoline-4-carboxamide]: in the data set with RD cells (neutral red method), the CC50 was determined as 149 ± 15.3 µM.

For `CN(C)CCNC(=O)c1cc(-c2ccccc2)nc2ccc(F)cc12` [Compound 19a, N-[2-(dimethylamino)ethyl]-6-fluoro-2-phenylquinoline-4-carboxamide], in the data set with RD cells (Table 6), the midpoint of cytotoxicity, the CC50, lay at 38.8 ± 19 µM.

On to `CCN(CC)CCNC(=O)c1cc(-c2ccc(CN3CCOCC3)cc2)nc2ccccc12` [Compound 6o, N-[2-(diethylamino)ethyl]-2-{4-[(morpholin-4-yl)methyl]phenyl}quinoline-4-carboxamide], for which the CC50 with RD cells (neutral red method) was determined as 79.2 ± 8 µM.

Regarding `CCN(CC)CCNC(=O)c1cc(-c2ccc3c(c2)OCCO3)nc2ccccc12` [Compound 6t, N-[2-(diethylamino)ethyl]-2-(2,3-dihydro-1,4-benzodioxin-6-yl)quinoline-4-carboxamide], half-maximal cytotoxicity in the data set with RD cells (neutral red method) (CC50) was put at 49.9 ± 13.8 µM.

`CCN(CC)CCNC(=O)c1cc(-c2ccccc2)nc2ccc(Cl)cc12` [Compound 15b, 6-chloro-N-[2-(diethylamino)ethyl]-2-phenylquinoline-4-carboxamide] came in with a 50% cytotoxic concentration (CC50) with RD cells (Table 6) of 13.5 ± 8.1 µM.

`CCN(CC)CCNC(=O)c1cc(OCC(F)(F)F)nc2ccccc12` [Compound 5c, N-[2-(diethylamino)ethyl]-2-(2,2,2-trifluoroethoxy)quinoline-4-carboxamide] came in with a cytotoxic concentration (CC50) in the data set on RD cells (neutral red method) of 33.1 ± 1.8 µM.

As for `CCN(CC)CCNC(=O)c1cc(-c2ccc(COC)cc2)nc2ccccc12` [Compound 6n, N-[2-(diethylamino)ethyl]-2-[4-(methoxymethyl)phenyl]quinoline-4-carboxamide], the CC50 in the data set with RD cells (neutral red method) came to 46.6 ± 2.4 µM.

Regarding `CCC(C)Oc1cc(C(=O)NCCN(CC)CC)c2ccccc2n1` (stereo not shown) [Compound 5f, 2-(butan-2-yloxy)-N-[2-(diethylamino)ethyl]quinoline-4-carboxamide], the CC50 in the data set with RD cells (neutral red method) came out at 15.7 ± 1.1 µM.

Regarding `CCN(CC)CCNC(=O)c1cc(OCC2CC2)nc2ccccc12` [Compound 5g, 2-(cyclopropylmethoxy)-N-[2-(diethylamino)ethyl]quinoline-4-carboxamide], half-maximal cytotoxicity in the data set with RD cells (neutral red method) (CC50) was put at 38.5 ± 16.8 µM.

In the case of `CN(C)CCNC(=O)c1cc(-c2ccccc2)nc2ccc(Cl)cc12` [Compound 15a, 6-chloro-N-[2-(dimethylamino)ethyl]-2-phenylquinoline-4-carboxamide], in the data set with RD cells (Table 6), half-maximal cytotoxicity (CC50) was put at 14.3 ± 0.8 µM.

As for `CC(C)Oc1cc(C(=O)NCCN2CCN(C)CC2)c2ccccc2n1` [Compound 8f, N-[2-(4-methylpiperazin-1-yl)ethyl]-2-(propan-2-yloxy)quinoline-4-carboxamide], the CC50 in the data set with RD cells (neutral red method) turned out to be 88.8 ± 21.5 µM.

As for `CCN(CC)CCCNC(=O)c1cc(-c2ccccc2)nc2ccccc12` [Compound 10b, N-[3-(diethylamino)propyl]-2-phenylquinoline-4-carboxamide], the CC50 with RD cells (neutral red method) is 45.4 ± 14 µM.

As to `O=C(NCCN1CCCC1)c1cc(-c2ccccc2)nc2ccccc12` [Compound 10g, 2-phenyl-N-[2-(pyrrolidin-1-yl)ethyl]quinoline-4-carboxamide], the CC50 in the data set on RD cells (neutral red method) was 46.7 ± 8.3 µM.

For `CCN(CC)CCNC(=O)c1cc(-c2ccccc2)nc2ccc(OC)cc12` [Compound 15d, N-[2-(diethylamino)ethyl]-6-methoxy-2-phenylquinoline-4-carboxamide], the CC50 in the data set on RD cells (Table 6) amounted to 27.5 ± 7.3 µM.

Take `CCN(CC)CCNC(=O)c1cc(-c2ccccc2)nc2ccc(F)cc12` [Compound 19b, N-[2-(diethylamino)ethyl]-6-fluoro-2-phenylquinoline-4-carboxamide]: in the data set with RD cells (Table 6), the midpoint of cytotoxicity, the CC50, lay at 24.9 ± 1.5 µM.

`CC(C)Oc1cc(C(=O)NCCN(C)C)c2ccccc2n1` [Compound 8a, N-[2-(dimethylamino)ethyl]-2-(propan-2-yloxy)quinoline-4-carboxamide]: the CC50 with RD cells (neutral red method) was found to be 38.5 ± 1.5 µM.

As for `COc1ccc2nc(-c3ccccc3)cc(C(=O)NCCN(C)C)c2c1` [Compound 15c, N-[2-(dimethylamino)ethyl]-6-methoxy-2-phenylquinoline-4-carboxamide], half-maximal cytotoxicity in the data set with RD cells (Table 6) (CC50) was put at 31.8 ± 1.3 µM.

The compound `CCN(CC)CCNC(=O)c1cc(-c2ccn[nH]2)nc2ccccc12` [Compound 6a, N-[2-(diethylamino)ethyl]-2-(1H-pyrazol-5-yl)quinoline-4-carboxamide] returned a CC50 in the data set on RD cells (neutral red method) of 132 ± 53.3 µM.

In turn, `CCN(CC)CCNC(=O)c1cc(-c2cnn(C)c2)nc2ccccc12` [Compound 6b, N-[2-(diethylamino)ethyl]-2-(1-methyl-1H-pyrazol-4-yl)quinoline-4-carboxamide] registered a CC50 in the data set on RD cells (neutral red method) of 251 ± 28.3 µM.

`CN(C)CCCNC(=O)c1cc(-c2ccccc2)nc2ccccc12` [Compound 10h, N-[3-(dimethylamino)propyl]-2-phenylquinoline-4-carboxamide] gave a half-maximal cytotoxic concentration (CC50) in the data set with RD cells (neutral red method) of 44.9 ± 17.7 µM.

`CC(C)Oc1cc(C(=O)NCCN2CCCC2)c2ccccc2n1` [Compound 8e, 2-(propan-2-yloxy)-N-[2-(pyrrolidin-1-yl)ethyl]quinoline-4-carboxamide] registered a cytotoxic concentration (CC50) in the data set on RD cells (neutral red method) of 36.9 ± 20.1 µM.

In the data set with RD cells (neutral red method), `CCCOc1cc(C(=O)NCCN(CC)CC)c2ccccc2n1` [Compound 5d, N-[2-(diethylamino)ethyl]-2-propoxyquinoline-4-carboxamide] registered a cytotoxic concentration (CC50) of 46.7 ± 14.7 µM.

For `CCC(CC)Oc1cc(C(=O)NCCN(CC)CC)c2ccccc2n1` [Compound 5h, N-[2-(diethylamino)ethyl]-2-(pentan-3-yloxy)quinoline-4-carboxamide], the 50% cytotoxic concentration (CC50) in the data set on RD cells (neutral red method) was 9.5 ± 1.1 µM.

`CCN(CC)CCNC(=O)c1cc(-c2ccc(-c3ccccc3)cc2)nc2ccccc12` [Compound 6u, 2-{[1,1′-biphenyl]-4-yl}-N-[2-(diethylamino)ethyl]quinoline-4-carboxamide] returned a CC50 with RD cells (neutral red method) of 9.8 ± 0.5 µM.

`CC(C)Oc1cc(C(=O)NCCCN(C)C)c2ccccc2n1` [Compound 8c, N-[3-(dimethylamino)propyl]-2-(propan-2-yloxy)quinoline-4-carboxamide]: the CC50 with RD cells (neutral red method) amounted to 122 ± 39.2 µM.

With `O=C(NCCCn1ccnc1)c1cc(-c2cccs2)nc2ccccc12` [Compound 12d, N-[3-(1H-imidazol-1-yl)propyl]-2-(thiophen-2-yl)quinoline-4-carboxamide], half-maximal cytotoxicity with RD cells (neutral red method) (CC50) was put at 55.7 ± 3.5 µM.

In the case of `CC(C)Oc1cc(C(=O)NC2CCN(C)CC2)c2ccccc2n1` [Compound 8g, N-(1-methylpiperidin-4-yl)-2-(propan-2-yloxy)quinoline-4-carboxamide], the midpoint of cytotoxicity with RD cells (neutral red method), the CC50, lay at 101 ± 8.8 µM.

The EC50 is the midpoint of the concentration-response curve. For orientation: CC50 means the concentration at which the toxic effect on the cells reaches its halfway point. Read a low CC50 as harm at low concentration.
